Reference: PMC3154276, “The Effect of the Potential PhoQ Histidine Kinase Inhibitors on Shigella flexneri Virulence” (PLoS ONE, 2011)

Experiments:
S. flexneri Sf9380 [1] = assay: Gentamicin protection assay, intracellular growth and spreading to adjacent cell of Sf9380; type: cell-based; conditions: for intracellular growth and spreading to adjacent cell of Sf9380 (bacteria recovered / inoculated): further incubated 290 min, untreated Sf9380 0.12
Procedure: The growth curve of Sf9380 treated with or without potential PhoQ inhibitors at concentration 200 µmol/L were tested. […] The gentamicin protection assay was used as a cellular model to evaluate the inhibitory effect of the four potential PhoQ inhibitors. The bacteria were treated with each of the four potential PhoQ inhibitors in a serial dilution and grown for 8 hours. Next, the bacteria were inoculated and incubated with HeLa cells for 60 min prior to the addition of gentamicin to kill extracellular bacteria. For testing intracellular growth and spreading to adjacent cell, cells were further incubated for 290 min [9]. The results of the assays were expressed as the number of bacteria recovered from gentamicin-treated cells divided by the number of inoculated bacteria added to the cell. After lysates of HeLa cells were plated, the number of CFU that formed on LB agar were counted.
Figure 6 The effects of potential PhoQ inhibitors on virulence of Shigella. […] The bacteria pre-treated with potential PhoQ inhibitor were added to HeLa cells at a multiplicity of infection of 100. Then gentamicin was added to kill extracellular bacteria and cell lysates were plated onto LB plates, and the colonies were counted. The results of the assays were expressed as the number of bacteria recovered from gentamicin-treated cells divided by the number of inoculated bacteria added to the cell. S. flexneri Sf9380 (treated without DMSO), a clinical strain with strong virulence, served as the positive control for the cell invasion assay; E. coli ATCC 25922 (treated without DMSO), an avirulent strain, served as the negative control for the cell invasion assay; bacteria treated with 0.1% DMSO (the solvent of the potential PhoQ inhibitor) also served as a control for the cell invasion assay. Values are means ± standard deviations from 6 independent wells. *p<0.01 vs. Sf9380. (A) The effects of potential PhoQ inhibitors on cell invasion of S. flexneri Sf9380 (B) The effects of potential PhoQ inhibitors on intracellular growth S. flexneri Sf9380. (C) The effects of potential PhoQ inhibitors on cell invasion of S. flexneri 2a 301 phoQ/phoP knock-out mutant.
Bacterial ability to invade HeLa cells was tested with a gentamicin protection assay. HeLa cells were grown in six-well tissue culture plates to semi-confluent monolayers (DMEM, 10% FCS, 5% CO2). Sf9380 or Sf301 ΔphoQ/phoP was treated with potential PhoQ inhibitors for 8 hours in LB at 37°C (final concentrations of 100,50,25,12.5 or 6.25 µmol/L) prior to infection. The bacteria pre-treated with potential PhoQ inhibitor without washing, were added to semi-confluent HeLa cells at a multiplicity of infection of 100, at the same time the bacteria were diluted and plated onto LB agar plates. The CFUs were counted as initial bacterial number before added into HeLa cells. Then the plates were centrifuged at 900×g for 5 minutes. After incubating at 37°C for 60 minutes (For testing intracellular growth and spreading to adjacent cell, cells were further incubated for 290 min [9].), the cells were washed three times with PBS, and gentamicin was added to the medium to a final concentration of 10 µg/ml for 20 minutes at 37°C. After the incubation, the HeLa cells in each well were lysed in 1 ml of PBS containing 0.1% Triton X-100 for 10 minutes at room temperature. The lysates were diluted and plated onto LB agar plates in triplicate. Colonies grown on LB plates were counted. The results of the assays were expressed as the number of bacteria recovered from gentamicin-treated cells divided by the number of inoculated bacteria added to the cell. The cells were inoculated with untreated Sf9380 or Sf301 ΔphoQ/phoP (treated without DMSO) as a positive control and E. coli ATCC 25922, an avirulent strain treated without DMSO, as a negative control. […]

S. flexneri Sf9380 [2] = assay: Mouse Sereny test (keratoconjunctivitis); on degree of keratoconjunctival inflammation: key: −: no disease; ±: little keratoconjunctivitis; +: mild keratoconjunctivitis; ++: keratoconjunctivitis with some purulence; +++: fully developed keratoconjunctivitis with great purulence; type: in vivo, BALB/c mice; conditions: for degree of keratoconjunctival inflammation: Sf9380 pre-treated at the concentration (I 1 12.5, I 2 25, I 3 and I 4 100 µmol/L); for keratoconjunctival inflammation (words, abstract): mice inoculated with pre-treated S. flexneri 9380
Text: A Mouse Sereny test was used to investigate the inhibitory effect of the four potential PhoQ inhibitors on the virulence of S. flexneri Sf9380. The mice were infected with 1×10^8 CFUs per eye.
A Mouse Sereny test was used to evaluate the virulence of S. flexneri Sf9380 [48]. A single red colony of Sf9380 on Congo Red agar (Tryptic soy broth provided by Oxfoid Co. with 1.5% agar and 0.01% Congo red), was inoculated into LB and grown with or without potential PhoQ inhibitors (final concentration 100,50,25,12.5 or 6.25 µmol/L) at 37°C for 8 hours with constant shaking. The female BALB/c mice (about 18 g) were infected with 1×10^8 CFUs per eye. The eye of the mouse was inoculated with the bacterium with or without potential PhoQ inhibitor treatment (n = 6 mice in each group). […] In the experiment, mouse eyes inoculated with untreated Sf9380 (treated without DMSO) served as the positive control for keratoconjunctivitis, and mouse eyes inoculated with E. coli ATCC 25922 (treated without DMSO) served as the negative control. Because DMSO is the solvent of the potential PhoQ inhibitor, Sf9380 was treated with the same amount of DMSO (0.1%) as the other groups. The invasiveness of the bacteria was scored: no disease or mild irritation as “−”, + as mild conjunctivitis or late development and/or rapid clearing of symptoms, ++ as keratoconjunctivitis without purulence, and +++ as fully developed keratoconjunctivitis with purulence.

[3] = Sf9380 pre-treated with 100 µmol/L, 1×10^8 CFUs per eye
[4] = Sf9380 pre-treated with 25 µmol/L, 1×10^8 CFUs per eye

Row | Structure (SMILES) | degree of keratoconjunctival inflammation (S. flexneri Sf9380 [2]; 24 h, mouse 1) | degree of keratoconjunctival inflammation (S. flexneri Sf9380 [2]; 24 h, mouse 2) | degree of keratoconjunctival inflammation (S. flexneri Sf9380 [2]; 24 h, mouse 3) | degree of keratoconjunctival inflammation (S. flexneri Sf9380 [2]; 24 h, mouse 4) | degree of keratoconjunctival inflammation (S. flexneri Sf9380 [2]; 24 h, mouse 5) | degree of keratoconjunctival inflammation (S. flexneri Sf9380 [2]; 24 h, mouse 6) | degree of keratoconjunctival inflammation (S. flexneri Sf9380 [2]; 48 h, mouse 1) | degree of keratoconjunctival inflammation (S. flexneri Sf9380 [2]; 48 h, mouse 2) | degree of keratoconjunctival inflammation (S. flexneri Sf9380 [2]; 48 h, mouse 3) | degree of keratoconjunctival inflammation (S. flexneri Sf9380 [2]; 48 h, mouse 4) | degree of keratoconjunctival inflammation (S. flexneri Sf9380 [2]; 48 h, mouse 5) | degree of keratoconjunctival inflammation (S. flexneri Sf9380 [2]; 48 h, mouse 6) | degree of keratoconjunctival inflammation (S. flexneri Sf9380 [2]; 72 h, mouse 1) | degree of keratoconjunctival inflammation (S. flexneri Sf9380 [2]; 72 h, mouse 2) | degree of keratoconjunctival inflammation (S. flexneri Sf9380 [2]; 72 h, mouse 3) | degree of keratoconjunctival inflammation (S. flexneri Sf9380 [2]; 72 h, mouse 4) | degree of keratoconjunctival inflammation (S. flexneri Sf9380 [2]; 72 h, mouse 5) | degree of keratoconjunctival inflammation (S. flexneri Sf9380 [2]; 72 h, mouse 6) | degree of keratoconjunctival inflammation (S. flexneri Sf9380 [2]; 96 h, mouse 1) | degree of keratoconjunctival inflammation (S. flexneri Sf9380 [2]; 96 h, mouse 2) | other results
1 | O=C(O)c1ccc(Cl)c(-c2ccc(/C=N/NC(=O)c3ccc(Br)cc3)o2)c1 [Compound 3] | + | + | + | + | + | + | + | − | − | − | + | − | − | + | − | − | − | − | − | − | times lower than untreated Sf9380, intracellular growth (S. flexneri Sf9380 [1]; 100 µmo/L): 2.6 times; intracellular growth and spreading to adjacent cell of Sf9380 (bacteria recovered / inoculated) (S. flexneri Sf9380 [1]; 100 µmo/L): 0.046; degree of keratoconjunctival inflammation (S. flexneri Sf9380 [2]; 96 h, mouse 3): −; degree of keratoconjunctival inflammation (S. flexneri Sf9380 [2]; 96 h, mouse 4): −; degree of keratoconjunctival inflammation (S. flexneri Sf9380 [2]; 96 h, mouse 5): −; degree of keratoconjunctival inflammation (S. flexneri Sf9380 [2]; 96 h, mouse 6): −; eye finding at 24 hours post-infection (S. flexneri Sf9380 [2]; [3]): slight conjunctival inflammation; time by which keratoconjunctivitis was resolved (S. flexneri Sf9380 [2]; [3]): ≤ 72 h; keratoconjunctival inflammation (words, abstract) (S. flexneri Sf9380 [2]): no inflammation
2 | CCOc1ccccc1-c1cc(C(=O)N/N=C/c2ccc(OCc3ccccc3)c(OC)c2)c2ccccc2n1 [Compound 2] | + | + | + | + | + | + | − | + | − | − | − | − | − | − | − | − | − | − | − | − | times lower than untreated Sf9380, intracellular growth (S. flexneri Sf9380 [1]; 25 µmo/L): 3.3 times; intracellular growth and spreading to adjacent cell of Sf9380 (bacteria recovered / inoculated) (S. flexneri Sf9380 [1]; 25 µmo/L): 0.036; degree of keratoconjunctival inflammation (S. flexneri Sf9380 [2]; 96 h, mouse 3): −; degree of keratoconjunctival inflammation (S. flexneri Sf9380 [2]; 96 h, mouse 4): −; degree of keratoconjunctival inflammation (S. flexneri Sf9380 [2]; 96 h, mouse 5): −; degree of keratoconjunctival inflammation (S. flexneri Sf9380 [2]; 96 h, mouse 6): −; eye finding at 24 hours after infection (S. flexneri Sf9380 [2]; [4]): slight conjunctival inflammation; time by which keratoconjunctivitis was resolved (S. flexneri Sf9380 [2]; [4]): ≤ 48 h; keratoconjunctival inflammation (words, abstract) (S. flexneri Sf9380 [2]): no inflammation
